The values below come from US4922021A, “New alkylene diamine derivatives” (BASF Aktiensellschaft, priority 1981, dated 1990).

For test [1], the system named is aconitin-induced arrhythmia. The conditions noted are these: mouse, in vivo, po, 100 mg/kg.
In test [2] the test system is aconitin-induced arrhythmia. The experiment in a line: animal or person. As to conditions: Mus musculus, ip, read-out: Delay in time of appearance of arrhythmia.
Test [3] deals with fibrillation threshold of the heart. Briefly: Determination of the fibrillation threshold in anaesthetized cats. It counts as in vivo. The conditions noted are these: i.v. From the text:
The chests of the cats were opened under chloralose-urethane anaesthesia a bipolar stimulating electrode was fixed onto the heart, and the heart was stimulated electrically with a frequency of 20 Hz, under continuously increasing current strength, until a fibrillo-flattern could be observed. This current strength was regarded as the fibrillation threshold of the animal.

For test [4], the system named is ouabain-induced arrhythmia. Briefly: Ouabain-induced arrhythmia in anaesthetized dogs. It counts as in vivo. The conditions noted are these: i.v.; for Complete suspension, number of cases: protection > 30 min = complete. The method, then:
Anaesthetized dogs of both sexes were treated intravenously with an infusion of 60 /ug/kg of ouabain to provoke arrhythmia, and the arrhythmic state was maintained with an ouabain dose 60 times less than the initial. In this way a ventricular tachycardia or tachyarrhythmia lasting for more than 180 minutes was provoked. The compounds were tested during this period. The period of recovered normal sinus rhythm was recorded, and when a compound exerted protective effect for more than 30 minutes, this fact was regarded as complete protection. The tests were performed essentially according to the method of Piascik et al. [Can.
Examination of the anti-arrhythmic effect in dogs anaesthetized with a 30
of pentobarbital sodium and treated with ouabain

Test [5] has as its system barium chloride-induced arrhythmia. Briefly: Barium chloride-induced arrhythmia in awake rabbits. It counts as in vivo. The conditions noted are these: i.v., 2 mg/kg; arrhythmia suspended for at least 3 minutes. The method, then:
The compounds to be tested were administered intravenously to the animals 3 minutes after treating them with barium chloride, and the effect was recorded. It was regarded as a positive protecting effect when the compound suspended the arrhythmic condition for at least 3 minutes.

For `CCC(N)CNc1c(C)cccc1C` (stereo not shown) [1-(2,6-dimethylphenyl-amino)-2-amino-butane], in test [1], the “Delay in the appearance time of arrhythmia” value (“Delay in the appearance time” for short) is reported as “+33.0%”. In addition, in test [2], the change in vivo at 10 mg/kg was 3%, the change in vivo at 25 mg/kg was determined as 40.8%, the change in vivo at 50 mg/kg worked out at 104% and the change in vivo at 75 mg/kg was determined as 149%.
On to `Cc1cccc(C)c1NCCC(C)N` (stereo not shown) [1-(2,6-dimethylphenyl-amino)-3-amino-butane], for which, in test [1], the “Delay in the appearance time” value is recorded as “+84.0%”. Further, the change in vivo at 10 mg/kg in test [2] came out at 0%. Besides, the change in vivo at 25 mg/kg in test [2] turned out to be 48%. Moreover, in test [2], the change in vivo at 50 mg/kg is 87%. Besides, the change in vivo at 75 mg/kg in test [2] came to 135%. The “Effect on the fibrillation threshold” value is given as “+2.3%” in test [3] (0.5 mg/kg), “+3.0%” in test [3] (1.0 mg/kg), “+16.5%” in test [3] (2.0 mg/kg) and “+52.9%” in test [3] (4.0 mg/kg). For the same compound, the “Average time of partial suspension” value in test [4] (0.5 mg/kg) is 0.3 min; in test [4] (1.0 mg/kg) it was 0.8 min; in test [4] (2.0 mg/kg), 3.7 min; in test [4] (4.0 mg/kg) it was 5.4 min; in test [4] (8.0 mg/kg) it was 6.5 min. Further, the “Complete suspension, number of cases” value is on record as 1/16 in test [4] (0.5 mg/kg); 1/15 in test [4] (1.0 mg/kg); 2/15 in test [4] (2.0 mg/kg); 7/14 in test [4] (4.0 mg/kg); 3/5 in test [4] (8.0 mg/kg). In test [5], the “Protecting effect, number of animals” value is 5/10.
With `Cc1cccc(C)c1N(C)CC(C)N(C)C` (stereo not shown) [1-[N-methyl-N-(2,6-dimethylphenyl)-amino]-2-dimethylamino-propane], the change in vivo at 50 mg/kg in test [2] came to 78%.
Turning to `CCN(CC)CC(=O)Nc1c(C)cccc1C.Cl` [N-(diethylamino-acetyl)-2,6-dimethylaniline hydrochloride, reference compound], in test [1], the “Delay in the appearance time” value is recorded as “+38.0%”. Also, the change in vivo at 5 mg/kg in test [2] is 1%. For the same compound, the change in vivo at 10 mg/kg in test [2] is 16.2%. In test [2], the change in vivo at 25 mg/kg stood at 33.7%. Besides, in test [2], the change in vivo at 40 mg/kg amounted to 70.1%. Moreover, the “Effect on the fibrillation threshold” value in test [3] (0.5 mg/kg) is recorded as 0%; in test [3] (1.0 mg/kg), “+2.0%”; in test [3] (2.0 mg/kg) it was “+17.7%”; in test [3] (4.0 mg/kg), “+39.1%”. Further, the “Average time of partial suspension” value turned out to be 0.5 min in test [4] (0.5 mg/kg); 1.6 min in test [4] (1.0 mg/kg); 2.5 min in test [4] (2.0 mg/kg); 2.5 min in test [4] (4.0 mg/kg); 7.5 min in test [4] (8.0 mg/kg). Moreover, the “Complete suspension, number of cases” value is on record as 0/15 in test [4] (0.5 mg/kg); 0/15 in test [4] (1.0 mg/kg); 1/15 in test [4] (2.0 mg/kg); 3/14 in test [4] (4.0 mg/kg); 2/11 in test [4] (8.0 mg/kg). The “Protecting effect, number of animals” value in test [5] is given as 2/10.
